Literature values, collected in paper PMC4128962 (Journal of controlled release : official journal of the …, 2013).

pKa: about 3.0
Substance: Hyaluronic acid [HA]
